Assay results published in US11726102B2, “Particle-based drug detection method and device embodiments” (Washington State University, priority 2015, dated 2023).
Where “and” joins values, the source holds several entries; their conditions need not be identical. Equal values may be shown once. Read-outs that look alike come from different tables or passages of the source.

What was measured:
[1] = THC on swab and in spit after cannabis inhalation (HPLC-MS); details: saliva spit into collection vial after inhaling cannabis; one line per volunteer (V14, V27, V40)
[2] = cited from earlier work
[3] = at 25° C.; cited from earlier work
[4] = cited from earlier work; remark: listed apart in the source

## CCCCCc1cc(O)c2c(c1)OC(C)(C)[C@@H]1CCC(C)=C[C@@H]21 [THC, Δ^9-tetrahydrocannabinol]
[1]
  THC in Spit: 2110.1 ng and 2259.2 ng and 129.6 ng
[2]; after being consumed
  time for the concentration in the body to build up to intoxication levels: at least 20 minutes
[2]; after inhalation, estimated
  psychoactive effects of THC felt after initial consumption: 2 to 4 h
[3]
  vapor pressure: 4.6×10^−8 mmHg
[4]; after inhalation, blood analyses by GC-MS or LC-MS
  time THC can be detected in the blood: 3.5 to 5.5 h
[4]; chronic users
  time detectable in human samples after use: up to 15 days
[4]; occasional users
  time detectable in human samples after use: 1.3 days
